Here are results for 17 compounds from patent publication US20170088545A1, “CARBOXAMIDE INHIBITORS” (Norvartis AG, priority 2014, published 2017).

As usually defined, the IC50 is the point on the concentration scale where inhibition reaches its midpoint. The low end stands for higher potency, the high end for lower potency.

For one experiment, the target named is Smurf-1 (Homo sapiens, UniProt Q9HCE7). The experiment is described as follows: HECT E3 ligase autoubiquitinylation TR-FRET assay, Smurf-1. Type of experiment: biochemical. As to conditions: 45 min incubation, 8-point dose-response. From the text:
(§1) To determine the HECT E3 ligase selectivity of the compounds, a panel of biochemical HECT E3 ligase autoubiquitinylation assays was employed (Smurf-1, Smurf-2, WWP1, WWP2, ITCH, Nedd4, Nedd4L and E6AP). The conjugation of ubiquitin to a protein substrate is a multistep process. In an initial ATP-requiring step, a thioester bond is formed between the carboxyl terminus of ubiquitin and an internal cystein residue of the ubiquitin-activating enzyme (E1). Activated ubiquitin is then transferred to a specific cystein residue of an ubiquitin-conjugating enzyme (E2). E2s donate ubiquitin to a HECT E3 ligase (E3) from which it is transferred to the substrate protein. HECT E3 ligases can auto-ubiquitinylate. This event is detected in the TR-FRET (Time-Resolved Fluorescence Resonance Energy Transfer) assay used in this panel. The reaction mix contains E1, E2, tagged-E3, biotin-conjugated ubiquitin, the compound and ATP in a suitable buffer and is incubated for 45 minutes to allow auto-ubiquitinylation of the E3 ligase. To measure the extent of ubiquitinylated E3 ligase by TR-FRET, the donor fluorophore Europium cryptate (Eu3+ cryptate), conjugated to streptavidin which subsequently binds to biotinylated ubiquitin, and the modified allophycocyanin XL665 (HTRF® primary acceptor fluorophore) coupled to a tag-specific antibody (HA, His or GST), which recognizes the respective E3 ligase fusion proteins, are added after the reaction is complete. When these two fluorophores are brought together by a biomolecular interaction (in this case ubiquitinylation of the E3 ligase), a portion of the energy captured by the Cryptate during excitation is released through fluorescence emission at 620 nm, while the remaining energy is transferred to XL665. This energy is then released by XL665 as specific fluorescence at 665 nm. Light at 665 nm is emitted only through FRET with Europium.
(§2) Test and reference compounds are prepared at 180× [final] in 90% DMSO, and diluted 1:3 in 90% DMSO.
(§3) For the biochemical assay panel, 50 nl of the test compounds, reference compounds and buffer/DMSO control are transferred to the respective wells of a 384-well white GREINER “SMALL VOLUME” PS plate. The assay panel is run at room temperature on a Biomek FX liquid handling workstation. To the assay plates containing 50 nl compound or control solutions in 90% DMSO, 4.5 ul of E3 ligase solution were added per well, followed by 4.5 ul of the pre-incubated E1/E2/Ub mix or the pre-diluted ubiquitin (LOW control). Plates are shaken vigorously after each addition. In this assay the compound concentrations range from 3 nM to 10 uM in an 8-point dose-response curve.
(§4) After 45 min of incubation the ubiquitinylation reactions were stopped by adding 4.5 ul 2 mM NEM, immediately followed by 4.5 ul of a detection solution including the XL665-labeled antibody and the streptavidin-coupled europium to give a total volume of 18 ul. After an incubation time of 45 min in the dark, the plates are transferred into the Pherastar fluorescence reader to measure the TR-FRET signal.

For the next experiment, the target named is Smurf-2 (Homo sapiens, UniProt Q9HAU4). The experiment is described as follows: HECT E3 ligase autoubiquitinylation TR-FRET assay, Smurf-2. Type of experiment: biochemical. The following applies: 45 min incubation, 8-point dose-response.
Chain of Smurf-2 (Q9HAU4 whole entry, species assumed): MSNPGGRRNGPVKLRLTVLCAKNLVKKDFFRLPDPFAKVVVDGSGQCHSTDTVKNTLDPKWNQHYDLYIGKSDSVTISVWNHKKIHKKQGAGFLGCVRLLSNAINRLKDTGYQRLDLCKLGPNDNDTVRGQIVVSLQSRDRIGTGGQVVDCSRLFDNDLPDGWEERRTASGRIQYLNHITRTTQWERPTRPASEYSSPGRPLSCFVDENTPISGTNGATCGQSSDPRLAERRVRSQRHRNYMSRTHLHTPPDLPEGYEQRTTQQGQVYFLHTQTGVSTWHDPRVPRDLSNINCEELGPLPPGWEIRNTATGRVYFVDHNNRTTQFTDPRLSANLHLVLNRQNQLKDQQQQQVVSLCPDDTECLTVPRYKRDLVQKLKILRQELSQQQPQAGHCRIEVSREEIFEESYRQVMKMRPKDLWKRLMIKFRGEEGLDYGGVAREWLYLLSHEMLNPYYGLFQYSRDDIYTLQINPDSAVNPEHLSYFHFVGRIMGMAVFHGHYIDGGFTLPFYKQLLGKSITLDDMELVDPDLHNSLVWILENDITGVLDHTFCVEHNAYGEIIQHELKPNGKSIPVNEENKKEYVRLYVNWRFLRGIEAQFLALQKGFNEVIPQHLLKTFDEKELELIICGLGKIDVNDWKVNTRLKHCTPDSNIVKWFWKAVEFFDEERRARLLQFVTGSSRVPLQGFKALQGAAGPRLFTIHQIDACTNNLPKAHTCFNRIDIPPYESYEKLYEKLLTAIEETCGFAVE
From the text: as §1, §2, §3, §4
A general note: In TR-FRET formats the signal depends on donor and acceptor labels being close together.

Some results are limits rather than exact numbers.

Chain of Smurf-1 (Q9HCE7 whole entry): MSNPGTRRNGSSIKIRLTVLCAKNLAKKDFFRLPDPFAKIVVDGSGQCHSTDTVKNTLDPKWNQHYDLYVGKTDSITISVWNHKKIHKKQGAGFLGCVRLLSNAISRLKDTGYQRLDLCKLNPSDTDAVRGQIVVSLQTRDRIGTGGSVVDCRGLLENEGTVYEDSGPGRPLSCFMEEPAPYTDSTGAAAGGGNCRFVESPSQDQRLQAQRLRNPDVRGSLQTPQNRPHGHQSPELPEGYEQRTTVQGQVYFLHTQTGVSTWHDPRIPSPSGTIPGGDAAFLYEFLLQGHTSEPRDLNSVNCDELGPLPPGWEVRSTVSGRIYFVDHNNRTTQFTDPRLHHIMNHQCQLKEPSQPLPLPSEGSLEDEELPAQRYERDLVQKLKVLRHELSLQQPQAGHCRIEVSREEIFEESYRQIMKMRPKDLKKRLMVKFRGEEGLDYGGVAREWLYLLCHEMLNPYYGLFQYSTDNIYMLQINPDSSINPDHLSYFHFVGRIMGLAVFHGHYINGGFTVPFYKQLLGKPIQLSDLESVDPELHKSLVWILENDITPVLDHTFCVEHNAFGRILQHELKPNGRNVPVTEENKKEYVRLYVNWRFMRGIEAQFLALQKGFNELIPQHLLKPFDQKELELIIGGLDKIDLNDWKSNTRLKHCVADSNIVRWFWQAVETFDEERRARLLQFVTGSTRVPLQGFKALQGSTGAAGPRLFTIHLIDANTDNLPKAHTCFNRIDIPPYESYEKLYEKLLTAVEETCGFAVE

With `COc1cc(F)c(-c2onc(C(=O)Nc3c(C)n(C)n(-c4ccccc4F)c3=O)c2C)c(F)c1` [Example 046, 5-(2,6-difluoro-4-methoxyphenyl)-N-(2-(2-fluorophenyl)-1,5-dimethyl-3-oxo-2,3-dihydro-1H-pyrazol-4-yl)-4-methylisoxazole-3-carboxamide], the IC50 is 4150 nM at Smurf-1 and more than 10000 nM against Smurf-2.

In the case of `COCc1ccc(-c2onc(C(=O)Nc3c(C)n(C)n(C4CCCCC4)c3=O)c2C)c(Cl)c1` [Example 47, 5-(2-Chloro-4-(methoxymethyl)phenyl)-N-(2-cyclohexyl-1,5-dimethyl-3-oxo-2,3-dihydro-1H-pyrazol-4-yl)-4-methylisoxazole-3-carboxamide], the IC50 was 41.5 nM against Smurf-1 and more than 20200 nM at Smurf-2.

Consider `COc1ccc(-c2onc(C(=O)Nc3c(C)n(C)n(C4CCCCC4)c3=O)c2C)cc1C` [Example 048, N-(2-Cyclohexyl-1,5-dimethyl-3-oxo-2,3-dihydro-1H-pyrazol-4-yl)-5-(4-methoxy-3-methylphenyl)-4-methylisoxazole-3-carboxamide], for which the IC50 amounted to 7.7 nM against Smurf-1 and 2400 nM against Smurf-2.

For `Cc1c(C(=O)Nc2c(C)n(C)n(C3CCCCC3)c2=O)noc1-c1ccc(Cl)cc1` [Example 049, 5-(4-Chlorophenyl)-N-(2-cyclohexyl-1,5-dimethyl-3-oxo-2,3-dihydro-1H-pyrazol-4-yl)-4-methylisoxazole-3-carboxamide], the IC50 on Smurf-1 was found to be 23.5 nM; on Smurf-2, 6750 nM.

As to `COc1ccccc1-c1onc(C(=O)Nc2c(C)n(C)n(C3CCCCC3)c2=O)c1C` [Example 051, N-(2-Cyclohexyl-1,5-dimethyl-3-oxo-2,3-dihydro-1H-pyrazol-4-yl)-5-(2-methoxyphenyl)-4-methylisoxazole-3-carboxamide], the IC50 is 560 nM on Smurf-1 and more than 20100 nM against Smurf-2.

As for `Cc1c(C(=O)Nc2c(C)n(C)n(C3CCCCC3)c2=O)noc1-c1ccc2occc2c1` [Example 054, 5-(Benzofuran-5-yl)-N-(2-cyclohexyl-1,5-dimethyl-3-oxo-2,3-dihydro-1H-pyrazol-4-yl)-4-methylisoxazole-3-carboxamide], the IC50 against Smurf-1 came out at 10.8 nM; against Smurf-2, 5000 nM.

Take `Cc1c(C(=O)Nc2c(C)n(C)n(C3CCCCC3)c2=O)noc1-c1cccc(F)c1F` [Example 055, N-(2-Cyclohexyl-1,5-dimethyl-3-oxo-2,3-dihydro-1H-pyrazol-4-yl)-5-(2,3-difluorophenyl)-4-methylisoxazole-3-carboxamide]: the IC50 is 109 nM on Smurf-1 and more than 20200 nM against Smurf-2.

Take `Cc1c(C(=O)Nc2c(C)n(C)n(C3CCCCC3)c2=O)noc1-c1ccc(Cl)cc1F` [Example 057, 5-(4-Chloro-2-fluorophenyl)-N-(2-cyclohexyl-1,5-dimethyl-3-oxo-2,3-dihydro-1H-pyrazol-4-yl)-4-methylisoxazole-3-carboxamide]: the IC50 turned out to be 24 nM at Smurf-1 and 7500 nM against Smurf-2.

Regarding `Cc1c(C(=O)Nc2c(C)n(C)n(-c3ccccc3F)c2=O)noc1-c1ccc2c(c1)CCO2` [Example 062, 5-(2,3-Dihydrobenzofuran-5-yl)-N-(2-(2-fluorophenyl)-1,5-dimethyl-3-oxo-2,3-dihydro-1H-pyrazol-4-yl)-4-methylisoxazole-3-carboxamide], the IC50 against Smurf-1 is 965 nM; against Smurf-2, more than 20200 nM.

Turning to `Cc1c(C(=O)Nc2c(C)n(C)n(C3CCCCC3)c2=O)noc1-c1ccc(Cl)cc1C1CC1` [Example 069, 5-(4-Chloro-2-cyclopropylphenyl)-N-(2-cyclohexyl-1,5-dimethyl-3-oxo-2,3-dihydro-1H-pyrazol-4-yl)-4-methylisoxazole-3-carboxamide], the IC50 on Smurf-1 is 5 nM; against Smurf-2, 3200 nM.

As for `COc1c(C)cccc1-c1onc(C(=O)Nc2c(C)n(C)n(C3CCCCC3)c2=O)c1C` [Example 070, N-(2-Cyclohexyl-1 ,5-dimethyl-3-oxo-2,3-dihydro-1H-pyrazol-4-yl)-5-(2-methoxy-3-methylphenyl)-4-methylisoxazole-3-carboxamide], the IC50 at Smurf-1 was 33 nM; on Smurf-2, 17800 nM.

For the compound `Cc1c(C(=O)Nc2c(C)n(C)n(C3CCCCC3)c2=O)noc1-c1ccc(OCC2CC2)cc1Cl` [Example 072, 5-(2-Chloro-4-(cyclopropylmethoxy)phenyl)-N-(2-cyclohexyl-1,5-dimethyl-3-oxo-2,3-dihydro-1H-pyrazol-4-yl)-4-methylisoxazole-3-carboxamide], the IC50 at Smurf-1 is 98 nM; against Smurf-2, more than 20200 nM.

Consider `Cc1c(C(=O)Nc2c(C)n(C)n(C3CCCCC3)c2=O)noc1-c1cccc2c1OCCC2` [Example 075, 5-(Chroman-8-yl)-N-(2-cyclohexyl-1,5-dimethyl-3-oxo-2,3-dihydro-1H-pyrazol-4-yl)-4-methyl isoxazole-3-carboxamide], for which the IC50 at Smurf-1 is 895 nM; on Smurf-2, more than 20200 nM.

`Cc1cc(C)c(-c2onc(C(=O)Nc3c(C)n(C)n(-c4ccccc4F)c3=O)c2C)c(C)c1` [Example 083, N-(2-(2-fluorophenyl)-1,5-dimethyl-3-oxo-2,3-dihydro-1H-pyrazol-4-yl)-5-mesityl-4-methylisoxazole-3-carboxamide]: the values for the IC50 at Smurf-1 and on Smurf-2 were 2300 nM and more than 20200 nM, respectively.

As for `COc1ccccc1-c1onc(C(=O)Nc2c(C)n(C)n(-c3ccccc3F)c2=O)c1C` [Example 084, N-(2-(2-fluorophenyl)-1,5-dimethyl-3-oxo-2,3-dihydro-1H-pyrazol-4-yl)-5-(2-methoxyphenyl)-4-methylisoxazole-3-carboxamide], the IC50 is 7150 nM at Smurf-1 and more than 20200 nM at Smurf-2.

For the compound `COc1ccc(-c2onc(C(=O)Nc3c(C)n(C)n(C4CCCCC4)c3=O)c2C2CC2)c(C(F)(F)F)c1` [Example 085, N-(2-Cyclohexyl-1,5-dimethyl-3-oxo-2,3-dihydro-1H-pyrazol-4-yl)-4-cyclopropyl-5-(4-methoxy-2-(trifluoromethyl)phenyl)isoxazole-3-carboxamide], the IC50 is 50.5 nM against Smurf-1 and more than 20200 nM against Smurf-2.

In the case of `COc1ccc(-c2onc(C(=O)Nc3c(C)n(C)n(C4CCCCC4)c3=O)c2C2CC2)c(F)c1` [Example 086, N-(2-Cyclohexyl-1,5-dimethyl-3-oxo-2,3-dihydro-1H-pyrazol-4-yl)-4-cyclopropyl-5-(2-fluoro-4-methoxyphenyl) isoxazole-3-carboxamide], the IC50 against Smurf-1 is 260 nM; against Smurf-2, more than 20200 nM.
